≈ marks a conversion by molar mass, not a printed value.
Legend:
Type in all cases: cell-based
S. aureus E31295 = assay: MIC, S. aureus E31295; settings: Staphylococcus aureus
E. coli CS109 = assay: MIC, E. coli CS109; settings: Escherichia coli
H. influenzae IID1638 = assay: MIC, H. influenzae IID1638; settings: Haemophilus influenzae
P. aeruginosa E03763 = assay: MIC, P. aeruginosa E03763; settings: Pseudomonas aeruginosa
P. aeruginosa NCTC10490 = assay: MIC, P. aeruginosa NCTC10490; settings: Pseudomonas aeruginosa
P. aeruginosa PA01 = assay: MIC, P. aeruginosa PA01; settings: Pseudomonas aeruginosa
[1] = tested on: P. aeruginosa E03441/SKR2-14; assay: MIC, P. aeruginosa E03441/SKR2-14; settings: Pseudomonas aeruginosa, E03441/SKR214
[2] = tested on: P. aeruginosa E03441/SKR2/I-2; assay: MIC, P. aeruginosa E03441/SKR2/I-2; settings: Pseudomonas aeruginosa
P. aeruginosa E03441/WT = assay: MIC, P. aeruginosa E03441/WT; settings: Pseudomonas aeruginosa
[3] = tested on: P. aeruginosa E03441/SKR2; assay: MIC, P. aeruginosa E03441/SKR2; settings: Pseudomonas aeruginosa
P. aeruginosa E03441/R24 = assay: MIC, P. aeruginosa E03441/R24; settings: Pseudomonas aeruginosa
P. aeruginosa E03402 = assay: MIC, P. aeruginosa E03402; settings: Pseudomonas aeruginosa

SMILES: C[C@@H](O)[C@H]1C(=O)N2C(C(=O)O)=C(S[C@@H]3CN[C@H](C(O)C4CCNC4)C3)[C@H](C)[C@H]12 (stereo partly drawn)
- MIC (S. aureus E31295): 0.1 µg/mL (≈ 0.243 µM)
- MIC (E. coli CS109): 0.05 µg/mL (≈ 0.121 µM)
- MIC (H. influenzae IID1638): 0.2 µg/mL (≈ 0.486 µM)
- MIC (P. aeruginosa E03763): 0.8 µg/mL (≈ 1.94 µM)
- MIC (P. aeruginosa NCTC10490): 0.1 µg/mL (≈ 0.243 µM)
- MIC (P. aeruginosa PA01): 0.2 µg/mL (≈ 0.486 µM)
- MIC [1]: 0.1 µg/mL (≈ 0.243 µM)
- MIC [2]: 0.4 µg/mL (≈ 0.972 µM)
- MIC (P. aeruginosa E03441/WT): 0.2 µg/mL (≈ 0.486 µM)
- MIC [3]: 0.2 µg/mL (≈ 0.486 µM)
- MIC (P. aeruginosa E03441/R24): 3.13 µg/mL (≈ 7.61 µM)
- MIC (P. aeruginosa E03402): 0.1 µg/mL (≈ 0.243 µM)
